Drawing on PubChem BioAssay (NCI), this text covers TGI and GI50 for 14 compounds.

Among the test systems are OVCAR-4 ovarian; MOLT-4 leukemia; CAKI-1 renal; NCI-H226 lung; TK-10 renal; DLD-1 colon; UACC-257 melanoma; MALME-3M melanoma; NCI-H522 lung; SK-OV-3 ovarian.
Holding throughout (experiment): DTP human tumour cell line panel, 48 h

Several values for one entry are separate records, joined by “and”; a condition that tells them apart may be missing. Equal entries are not always repeated.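 Protocol summary: plate cells (96-well), add compound at 5 concentrations, incubate 48 h, interpolate endpoints linearly. GI50 marks 50% less growth. TGI is the concentration that stops growth completely.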 Where only a bound is given, the exact number is not on record here.

In general, TGI refers to the concentration at which net growth stops. Low readings indicate greater sensitivity of the cells, high ones lower sensitivity of the cells. Regarding `CCCCN[C@H]1C2C3CC4C5CC(C42)C1(C)C53` (stereo not given in full), the TGI in the assay on OVCAR-4 ovarian, in the assay with MOLT-4 leukemia, in the assay with CAKI-1 renal, with NCI-H226 lung, in the assay on TK-10 renal and in the assay with DLD-1 colon was greater than 100 µM in each case. The TGI in the assay on UACC-257 melanoma, in the assay with MALME-3M melanoma, in the assay on NCI-H522 lung and in the assay with SK-OV-3 ovarian was greater than 100 µM throughout.
Turning to `COC(=O)N/N=C(/CCC(=O)Nc1ccc(C)c(C)c1)CC(=O)C(C)(C)C`, the total growth inhibition concentration (TGI) with OVCAR-4 ovarian, in the assay on MOLT-4 leukemia, in the assay on CAKI-1 renal, with NCI-H226 lung, in the assay with TK-10 renal and in the assay on DLD-1 colon was greater than 100 µM in each case. Besides, the TGI in the assay on UACC-257 melanoma, with MALME-3M melanoma, in the assay on NCI-H522 lung and in the assay on SK-OV-3 ovarian was greater than 100 µM in each case.
Take `Cc1ccc(-c2cc(=O)c3cc(C)c(C)c(C(=O)O)c3o2)cc1N`: the TGI in the assay on OVCAR-4 ovarian, in the assay with MOLT-4 leukemia, in the assay on CAKI-1 renal, in the assay on NCI-H226 lung, in the assay on TK-10 renal and in the assay with DLD-1 colon was greater than 100 µM in each case. Besides, the TGI in the assay on UACC-257 melanoma, in the assay on MALME-3M melanoma, in the assay with NCI-H522 lung and in the assay with SK-OV-3 ovarian was greater than 100 µM each time.
On to `CSc1nc(NC2OC(COC(C)=O)C(OC(C)=O)C(OC(C)=O)C2OC(C)=O)c(-c2csc(N)n2)c(=O)n1C` (stereo not given), for which the TGI was 55.1 µM in the assay with OVCAR-4 ovarian; greater than 100 µM with MOLT-4 leukemia; greater than 100 µM with CAKI-1 renal; 81.7 µM in the assay with NCI-H226 lung; greater than 100 µM with TK-10 renal; greater than 100 µM in the assay on DLD-1 colon. Besides, the TGI with UACC-257 melanoma, in the assay on MALME-3M melanoma, with NCI-H522 lung and in the assay on SK-OV-3 ovarian was greater than 100 µM each time.
Regarding `O=[N+]([O-])c1ccc(/C=C/c2csnn2)cc1`, the TGI with OVCAR-4 ovarian, with MOLT-4 leukemia, with CAKI-1 renal, in the assay with NCI-H226 lung, with TK-10 renal and with DLD-1 colon was greater than 100 µM each time. For the same compound, the TGI in the assay on UACC-257 melanoma, in the assay with MALME-3M melanoma, in the assay with NCI-H522 lung and in the assay with SK-OV-3 ovarian was greater than 100 µM in each case.
As for `CNS(=O)(=O)NN(C)S(=O)(=O)c1ccc2ccccc2c1`, the TGI with OVCAR-4 ovarian, in the assay with MOLT-4 leukemia, with CAKI-1 renal, in the assay with NCI-H226 lung, in the assay with TK-10 renal and in the assay with DLD-1 colon was greater than 100 µM throughout. The TGI in the assay on UACC-257 melanoma, with MALME-3M melanoma, in the assay with NCI-H522 lung and with SK-OV-3 ovarian was greater than 100 µM throughout.
One may read the GI50 as the concentration that inhibits growth by half. On to `O=S1(=O)CS(=O)(=O)OCCO1`, for which the TGI in the assay with OVCAR-4 ovarian was 130 µM; with MOLT-4 leukemia it was 100 µM; with CAKI-1 renal it was > 92.9 µM and 143 µM; with NCI-H226 lung, 172 µM; in the assay on TK-10 renal it was 363 µM; in the assay on DLD-1 colon, 164 µM. Moreover, the TGI was 153 µM in the assay with UACC-257 melanoma, 214 µM in the assay on MALME-3M melanoma, 140 µM in the assay with NCI-H522 lung and 70.5 µM in the assay on SK-OV-3 ovarian. Besides, the GI50 was 18.4 µM in the assay with MOLT-4 leukemia; 33.2 µM with CAKI-1 renal; greater than 93.7 µM in the assay on NCI-H226 lung; greater than 63.8 µM in the assay on UACC-257 melanoma; greater than 96.4 µM with NCI-H522 lung.
For `COc1ccc2c(c1)CC1c3c(ccc(OC)c3O)CC2N1C` (stereo not given), the TGI with OVCAR-4 ovarian is greater than 100 µM; with MOLT-4 leukemia, 73.8 µM; in the assay with CAKI-1 renal it was greater than 100 µM; in the assay with NCI-H226 lung it was greater than 100 µM; in the assay on TK-10 renal, greater than 100 µM; in the assay on DLD-1 colon, greater than 100 µM. In addition, the TGI in the assay with UACC-257 melanoma was 50.6 µM; in the assay with MALME-3M melanoma it was 29.4 µM; with NCI-H522 lung, 37.9 µM; with SK-OV-3 ovarian, greater than 100 µM.
With `CCOC(=O)c1oc2ccc([N+](=O)[O-])c3c2c1CCC3`, the TGI was greater than 100 µM in the assay with OVCAR-4 ovarian; greater than 100 µM in the assay with MOLT-4 leukemia; greater than 77.5 µM in the assay with CAKI-1 renal; greater than 100 µM in the assay on NCI-H226 lung; 85.9 µM in the assay with TK-10 renal; greater than 100 µM in the assay on DLD-1 colon. Besides, the TGI was greater than 100 µM with UACC-257 melanoma, greater than 100 µM in the assay with MALME-3M melanoma, greater than 85.2 µM with NCI-H522 lung and greater than 46.3 µM with SK-OV-3 ovarian.
In the case of `O=c1c(NO)c([N+](=O)[O-])cnn1-c1ccccc1`, the TGI in the assay with OVCAR-4 ovarian came to 6.95 µM; with MOLT-4 leukemia, 10.5 µM; with CAKI-1 renal, 11.2 µM; in the assay with NCI-H226 lung, 16.5 µM; in the assay with TK-10 renal, 33.2 µM; in the assay on DLD-1 colon it was 10.2 µM. Further, the total growth inhibition concentration (TGI) with UACC-257 melanoma is 13.4 µM; with MALME-3M melanoma it was 12 µM; in the assay with NCI-H522 lung, 4.86 µM; with SK-OV-3 ovarian, 13.3 µM.
Regarding `CCOC(=N)CC(=O)Nc1cccc(Cl)c1`, the TGI in the assay with OVCAR-4 ovarian, in the assay with MOLT-4 leukemia, in the assay on CAKI-1 renal, with NCI-H226 lung, in the assay with TK-10 renal and in the assay on DLD-1 colon was greater than 100 µM each time. In addition, the TGI in the assay on UACC-257 melanoma, with MALME-3M melanoma, in the assay on NCI-H522 lung and in the assay on SK-OV-3 ovarian was greater than 100 µM each time.
As to `O=S(=O)([O-])[O-].[Cl-].[NH2-].[NH2-].[NH2-].[NH2-].[Ru+3].c1ccncc1`, the TGI in the assay with OVCAR-4 ovarian, with MOLT-4 leukemia, in the assay with CAKI-1 renal, in the assay on NCI-H226 lung, in the assay with TK-10 renal and with DLD-1 colon was greater than 100 µM throughout. The TGI in the assay with UACC-257 melanoma, in the assay on MALME-3M melanoma, in the assay on NCI-H522 lung and in the assay with SK-OV-3 ovarian was greater than 100 µM in each case.
Consider `C/C(=N\N=C(\[Se])N(C)C)c1ccccn1`, for which the TGI with OVCAR-4 ovarian was 13.9 µM; with MOLT-4 leukemia, 7.8 µM; in the assay with CAKI-1 renal it was 16.1 µM; in the assay on NCI-H226 lung, 5.27 µM; in the assay with TK-10 renal, 18.1 µM; with DLD-1 colon, 16.9 µM. The TGI in the assay with UACC-257 melanoma worked out at 0.162 µM; in the assay on MALME-3M melanoma, 9.35 µM; in the assay with NCI-H522 lung, 0.975 µM; in the assay with SK-OV-3 ovarian, 10.2 µM.
With `O=S1(=O)CCCS(=O)(=O)C(c2ccccc2)=C1c1ccccc1`, the TGI with OVCAR-4 ovarian, in the assay on MOLT-4 leukemia, in the assay with CAKI-1 renal, in the assay with NCI-H226 lung, with TK-10 renal and in the assay on DLD-1 colon was greater than 100 µM in each case. Also, the TGI in the assay on UACC-257 melanoma is greater than 100 µM; in the assay on MALME-3M melanoma, greater than 100 µM; in the assay with NCI-H522 lung, 89.9 µM; in the assay on SK-OV-3 ovarian, greater than 100 µM.
